Measured values: patent US9540691B2, “Assays and methods for selecting a treatment regimen for a subject with depression” (THE GENERAL HOSPITAL CORPORATION, priority 2011, dated 2017)
Where two headings read alike, the source gives them in different places.

Tested on: MDD patients carrying the indicated conditions
Conditions: with SSRI
Method: Folate levels are classified as either low (<=2.5 ng/ml) or normal; and homocysteine levels as either normal or elevated (>=[…]). The presence or absence of at least one […] allele for the MTHFR gene are entered as a dichotomous variable (present or absent). […] Using folate as an example predicator, the presence or absence of a low serum-folate level along with treatment assignment can be entered in a 2×2, factorial ANOVA, using depression improvement scores (baseline minus endpoint HAM-D-17 scores) as the dependant variable. […] Similar analyses (i.e. separate 2×2 ANOVA's) can be performed substituting the presence of low folate levels for the presence of other predictors as described herein. Similarly, the effect of other predictors can be indicated by the interaction term representing the potential modulating influence of those variables.
Particularly, specific genetic and biomarkers that were assessed include the following: • (a) BMI calculation of at least about 30 kg/m^2; • (b) an expression ratio of SAM/SAH smaller than 2.8 (e.g., 2.71) as measured in a plasma sample; • (c) a level of 4-HNE no less than 3.28 μg/mL (as measured in a plasma sample); • (d) presence of rare variants CT or TT at position 677 of SEQ ID NO: 1 corresponding to a portion of a genomic nucleic acid sequence of methylenetetrahydrofolate reductase (MTHFR) (abbreviated as “MTHFR 677” below); • (e) presence of rare variants AG or GG at position 2756 of SEQ ID NO: 2 corresponding to a portion of genomic nucleic acid sequence of methionine synthase (MTR) (abbreviated as “MTR 2756” below); and • (f) presence of rare variants AG or GG at position 66 of SEQ ID NO: 3 corresponding to a portion of genomic nucleic acid sequence of methionine synthase reductase (MTRR) (abbreviated as “MTRR 66” below).
The efficacy effect is determined by measuring the mean change in the HAMD-17 score and HAMD-28 score by the end of Phase I and Phase II, as compared to the baseline.

[1] = Phase II, interaction of BMI with the treatment
[2] = Phase II, interaction of HNE-his with the treatment
[3] = Phase II, interaction of SAM/SAH with the treatment
[4] = Pooled phases, 25 =< BMI < 30 kg/m^2 (18, 10)
[5] = Pooled phases, BMI < 25 (14, 7)

## CN1c2c(nc(N)[nH]c2=O)NC[C@@H]1CNc1ccc(C(=O)N[C@@H](CCC(=O)O)C(=O)O)cc1 [6(S)-5-MTHF, 6(S)-5-methyltetrahydrofolate]
Phase II, MTR 2756 AA and MTRR 66 AA
  Effect, change in HAMD-28 score: −8.000
Phase II, MTR 2756 AA and SAM/SAH >= median (24,12)
  Effect, change in HAMD-17 score: 1.971
Phase II, MTR 2756 AA and SAM/SAH >= median
  Effect, change in HAMD-28 score: 2.000
Phase II, MTR 2756 AA
  Effect, change in HAMD-28 score: −0.446
Phase II, MTR 2756 AG or GG and BMI >= 30 kg/m^2 (10,5)
  Effect, change in HAMD-17 score: −12.167
Phase II, MTR 2756 AG or GG and BMI >= 30 kg/m^2
  Effect, change in HAMD-28 score: −13.000
Phase II, MTR 2756 AG or GG and HNE-His >= median (13,7)
  Effect, change in HAMD-17 score: −8.417
Phase II, MTR 2756 AG or GG and HNE-His >= median = 3.28 (plasma sample)
  Effect, change in HAMD-28 score: −9.500
Phase II, MTR 2756 AG or GG and MTRR 66 AG or GG (15,7)
  Effect, change in HAMD-17 score: −4.667
Phase II, MTR 2756 AG or GG and MTRR 66 AG or GG and BMI >= 30 kg/m^2 (8,4)
  Effect, change in HAMD-17 score: −11.000
Phase II, MTR 2756 AG or GG and MTRR 66 AG or GG and BMI >= 30 kg/m^2
  Effect, change in HAMD-28 score: −12.000
Phase II, MTR 2756 AG or GG and MTRR 66 AG or GG and HNE-His >= median (10,4)
  Effect, change in HAMD-17 score: −11.000
Phase II, MTR 2756 AG or GG and MTRR 66 AG or GG and HNE-His >= median
  Effect, change in HAMD-28 score: −12.000
Phase II, MTR 2756 AG or GG and MTRR 66 AG or GG and SAM/SAH < median (8,3)
  Effect, change in HAMD-17 score: −6.500
Phase II, MTR 2756 AG or GG and MTRR 66 AG or GG and SAM/SAH < median = 2.71 (plasma sample)
  Effect, change in HAMD-28 score: −10.500
Phase II, MTR 2756 AG or GG and MTRR 66 AG or GG
  Effect, change in HAMD-28 score: −6.583
Phase II, MTR 2756 AG or GG and SAM/SAH < median (10,4)
  Effect, change in HAMD-17 score: −2.500
Phase II, MTR 2756 AG or GG and SAM/SAH < median = 2.71 (plasma sample)
  Effect, change in HAMD-28 score: −7.500
Phase II, MTR 2756 AG/GG (20,11)
  Effect, change in HAMD-17 score: −3.600
Phase II, MTR 2756 AG/GG
  Effect, change in HAMD-28 score: −5.300
Phase II, MTRR 66 AA and HNE-His < median (8,5)
  Effect, change in HAMD-17 score: −1.667
Phase II, MTRR 66 AA and HNE-His < median = 3.28 (plasma sample)
  Effect, change in HAMD-28 score: −2.000
Phase II, MTRR 66 AA and SAM/SAH >= median (9,6)
  Effect, change in HAMD-17 score: −3.000
Phase II, MTRR 66 AA and SAM/SAH >= median
  Effect, change in HAMD-28 score: −3.333
Phase II, MTRR 66 AG or GG and HNE-His >= median (24,11)
  Effect, change in HAMD-17 score: −3.500
Phase II, MTRR 66 AG or GG and HNE-His >= median
  Effect, change in HAMD-28 score: −4.071
Phase II, MTRR 66 AG or GG and SAM/SAH < median (24,10)
  Effect, change in HAMD-17 score: −6.190
Phase II, MTRR 66 AG or GG and SAM/SAH < median = 2.71 (plasma sample)
  Effect, change in HAMD-28 score: −7.381
Phase II, SAM/SAH < median and HNE-His >= median (19,7)
  Effect, change in HAMD-17 score: −9.000
Phase II, SAM/SAH < median and HNE-His >= median
  Effect, change in HAMD-28 score: −12.000
Phase II, SAM/SAH >= median and HNE-His < median (18,8)
  Effect, change in HAMD-17 score: 4.000
Phase II, SAM/SAH >= median and HNE-His < median
  Effect, change in HAMD-28 score: 4.500
[1]
  Effect, change in HAMD-17 score: BMI*treat: 0.113
  Effect, change in HAMD-28 score: BMI*treat: 0.082
[2]
  Effect, change in HAMD-17 score: HNE-his*treat: 2.027
  Effect, change in HAMD-28 score: HNE-his*treat: 2.362
[3]
  Effect, change in HAMD-17 score: SAM/SAH*treat: 1.483
  Effect, change in HAMD-28 score: SAM/SAH*treat (last line): 1.806
Phase II, interaction of base HAMD-17 with the treatment
  Effect, change in HAMD-17 score: baseHAMD-17*treat: −0.249
Phase II, interaction with the treatment
  Effect, change in HAMD-28 score: SAM/SAH*treat (first line under HAMD28): 1.483
[4]
  Effect, change in HAMD-17 score: 3.331
  Effect, change in HAMD-28 score: 2.054
[5]
  Effect, change in HAMD-17 score: −1.248
  Effect, change in HAMD-28 score: −1.018
Pooled phases, BMI < 30 kg/m^2 and HNE-His < median (19, 9)
  Effect, change in HAMD-17 score: 4.738
Pooled phases, BMI < 30 kg/m^2 and HNE-His < median
  Effect, change in HAMD-28 score: 4.253
Pooled phases, BMI < 30 kg/m^2 and SAM/SAH >= median (16,8)
  Effect, change in HAMD-17 score: 2.583
Pooled phases, BMI < 30 kg/m^2 and SAM/SAH >= median
  Effect, change in HAMD-28 score: 2.906
Pooled phases, BMI >= 30 kg/m^2 (40,21)
  Effect, change in HAMD-28 score: −4.660
Pooled phases, BMI >= 30 kg/m^2 and HNE-His >= median (23, 11)
  Effect, change in HAMD-17 score: −5.420
Pooled phases, BMI >= 30 kg/m^2 and SAM/SAH < median (21,9)
  Effect, change in HAMD-17 score: −7.302
Pooled phases, BMI >= 30 kg/m^2 and SAM/SAH < median = 2.71 (plasma sample)
  Effect, change in HAMD-28 score: −7.572
Pooled phases, MTHFR 677 CC and BMI < 30 kg/m^2 (17,8)
  Effect, change in HAMD-17 score: 1.356
Pooled phases, MTHFR 677 CC and BMI < 30 kg/m^2
  Effect, change in HAMD-28 score: −0.234
Pooled phases, MTHFR 677 CC and HNE-His < median (20,11)
  Effect, change in HAMD-17 score: −1.050
Pooled phases, MTHFR 677 CC and HNE-His < median = 3.28 (plasma sample)
  Effect, change in HAMD-28 score: −1.340
